{"source": "patent US12391702B2", "about": "“Benzo[5,6][1,4]dioxino[2,3-b]pyridine compounds useful as IRAK4 inhibitors” (BRISTOL-MYERS SQUIBB COMPANY, priority 2020, dated 2025)", "key": {"IRAK4": {"biological_target": "IRAK4 (Homo sapiens (Human), UniProt Q9NWZ3)", "sequence (Q9NWZ3 whole entry)": "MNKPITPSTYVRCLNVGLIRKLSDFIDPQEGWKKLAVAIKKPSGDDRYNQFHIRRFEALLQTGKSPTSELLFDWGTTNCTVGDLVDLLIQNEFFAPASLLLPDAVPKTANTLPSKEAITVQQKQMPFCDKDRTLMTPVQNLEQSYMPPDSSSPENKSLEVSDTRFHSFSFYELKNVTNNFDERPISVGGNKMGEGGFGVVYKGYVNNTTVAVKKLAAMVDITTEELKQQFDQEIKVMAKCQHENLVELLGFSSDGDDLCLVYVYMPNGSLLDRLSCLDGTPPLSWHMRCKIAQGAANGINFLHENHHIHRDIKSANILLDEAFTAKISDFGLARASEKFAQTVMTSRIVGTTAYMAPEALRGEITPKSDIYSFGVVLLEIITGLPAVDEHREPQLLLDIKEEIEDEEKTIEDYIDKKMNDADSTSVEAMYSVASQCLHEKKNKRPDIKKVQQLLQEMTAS", "experiment": "IRAK4 Inhibition Assay", "format": "biochemical", "settings": "ATP 500 μM; IRAK4 0.6 nM; 60 min at room temperature", "description": "The assays were performed in U-bottom 384-well plates. The final assay volume was 30 μL prepared from 15 μL additions of enzyme and substrates (fluoresceinated peptide and ATP) and test compounds in assay buffer (20 mM HEPES pH 7.2, 10 mM MgCl2, 0.015% Brij 35 and 4 mM DTT). The reaction was initiated by the combination of IRAK4 with substrates and test compounds. The reaction mixture was incubated at room temperature for 60 min. and terminated by adding 45 μL of 35 mM EDTA to each sample. The reaction mixture was analyzed on the Caliper LABCHIP® 3000 (Caliper, Hopkinton, MA) by electrophoretic separation of the fluorescent substrate and phosphorylated product. Inhibition data were calculated by comparison to no enzyme control reactions for 100% inhibition and vehicle-only reactions for 0% inhibition. The final concentrations of reagents in the assays are ATP, 500 μM; FL-IPTSPITTTYFFFKKK peptide 1.5 μM; IRAK4, 0.6 nM; and DMSO, 1.6%."}, "[1]": {"system": "Human whole blood stimulated with a TLR2 agonist (lipoteichoic acid), IL-6 levels", "experiment": "IRAK4 Whole Blood Assay", "format": "cell-based", "settings": "10 μg/mL lipoteichoic acid for 5 hours", "description": "Human whole blood containing the anti-coagulant ACD-A was plated in 384-well plate (25 μL/well) and incubated with compounds for 60 minutes at 37° C. in a 5% CO2 incubator. The blood was stimulated with a TLR2 agonist, 10 μg/mL final concentration of lipoteichoic acid (Invivogen, San Diego, CA) in 25 μL RPMI (Gibco) for 5 hours in a 5% CO2 incubator. At the end of the incubation, plates were centrifuged at 2300 rpm for 5 minutes. Supernatants were harvested and analyzed for IL-6 levels by Flow Cytometry beads assay (BD Biosciences, San Jose, CA)."}}, "data": [{"smiles": "Cc1cc(CNC(=O)c2cnc3c(c2NC(C)C)Oc2cc(C#N)ccc2O3)on1", "note": "[Example 14, 7-cyano-4-(isopropylamino)-N-((3-methylisoxazol-5-yl)methyl)benzo[5,6][1,4]dioxino[2,3-b]pyridine-3-carboxamide]", "values": [{"measurement": "IC50", "setting": "IRAK4", "result": 530, "unit": "nM"}]}, {"smiles": "CC(C)Nc1c(C(=O)NCc2cnco2)cnc2c1Oc1cc(C#N)ccc1O2", "note": "[Example 13, 7-cyano-4-(isopropylamino)-N-(oxazol-5-ylmethyl)benzo[5,6][1,4]dioxino[2,3-b]pyridine-3-carboxamide]", "values": [{"measurement": "IC50", "setting": "IRAK4", "result": 180, "unit": "nM"}]}, {"smiles": "CC(C)CCNC(=O)c1cnc2c(c1NC(C)C)Oc1cc(C#N)ccc1O2", "note": "[Example 16, 7-cyano-N-isopentyl-4-(isopropylamino)benzo[5,6][1,4]dioxino[2,3-b]pyridine-3-carboxamide]", "values": [{"measurement": "IC50", "setting": "IRAK4", "result": 23, "unit": "nM"}]}, {"smiles": "CC(C)Nc1c(C(=O)NCC2(CO)CC2)cnc2c1Oc1cc(C#N)ccc1O2", "note": "[Example 11, 7-cyano-N-((1-(hydroxymethyl)cyclopropyl)methyl)-4-(isopropylamino)benzo [5,6][1,4]dioxino[2,3-b]pyridine-3-carboxamide]", "values": [{"measurement": "IC50", "setting": "IRAK4", "result": 440, "unit": "nM"}]}, {"smiles": "CC(C)Nc1c(C(=O)N[C@H]2CC[C@H](O)CC2)cnc2c1Oc1cc(C#N)ccc1O2", "note": "[Example 6, 7-cyano-N-((1r,4r)-4-hydroxycyclohexyl)-4-(isopropylamino)benzo[5,6][1,4]dioxino[2,3-b]pyridine-3-carboxamide]", "values": [{"measurement": "IC50", "setting": "IRAK4", "result": 31, "unit": "nM"}]}, {"smiles": "CC(C)Nc1c(C(=O)NCCC(C)(C)O)cnc2c1Oc1cc(C#N)ccc1O2", "note": "[Example 15, 7-cyano-N-(3-hydroxy-3-methylbutyl)-4-(isopropylamino)benzo[5,6][1,4]dioxino [2,3-b]pyridine-3-carboxamide]", "values": [{"measurement": "IC50", "setting": "IRAK4", "result": 22, "unit": "nM"}]}, {"smiles": "CC(C)Nc1c(C(=O)NC2CCNCC2)cnc2c1Oc1cc(C#N)ccc1O2", "note": "[Example 20, 7-cyano-4-(isopropylamino)-N-(piperidin-4-yl)benzo[5,6][1,4]dioxino[2,3-b]pyridine-3-carboxamide]", "values": [{"measurement": "IC50", "setting": "IRAK4", "result": 85, "unit": "nM"}]}, {"smiles": "CC(C)Nc1c(C(=O)N[C@H](C)CCO)cnc2c1Oc1cc(C#N)ccc1O2", "note": "[Example 10, (R)-7-cyano-N-(4-hydroxybutan-2-yl)-4-(isopropylamino)benzo[5,6][1,4]dioxino [2,3-b]pyridine-3-carboxamide]", "values": [{"measurement": "IC50", "setting": "IRAK4", "result": 160, "unit": "nM"}]}, {"smiles": "CC(C)Nc1c(C(=O)N[C@H]2CC[C@H](N)CC2)cnc2c1Oc1cc(C#N)ccc1O2", "note": "[Example 17, N-((1R,4R)-4-aminocyclohexyl)-7-cyano-4-(isopropylamino)benzo[5,6][1,4]dioxino [2,3-b]pyridine-3-carboxamide]", "values": [{"measurement": "IC50", "setting": "IRAK4", "result": 34, "unit": "nM"}]}, {"smiles": "CC(C)Nc1c(C(=O)NC[C@@H](F)C(C)(C)O)cnc2c1Oc1ccc(C#N)cc1O2", "note": "[Example 2, (R)-8-cyano-N-(2-fluoro-3-hydroxy-3-methylbutyl)-4-(isopropylamino)benzo[5,6][1,4]dioxino[2,3-b]pyridine-3-carboxamide]", "values": [{"measurement": "EC50", "setting": "[1]", "result": 1700, "unit": "nM"}, {"measurement": "IC50", "setting": "IRAK4", "result": 8.5, "unit": "nM"}]}, {"smiles": "CC(C)Nc1c(C(=O)NCc2nccs2)cnc2c1Oc1cc(C#N)ccc1O2", "note": "[Example 19, 7-cyano-4-(isopropylamino)-N-(thiazol-2-ylmethyl)benzo[5,6][1,4]dioxino[2,3-b]pyridine-3-carboxamide]", "values": [{"measurement": "IC50", "setting": "IRAK4", "result": 170, "unit": "nM"}]}, {"smiles": "CC(C)Nc1c(C(=O)NC(CCO)C2CC2)cnc2c1Oc1cc(C#N)ccc1O2", "note": "(centres unmarked) [Example 8, 7-cyano-N-(1-cyclopropyl-3-hydroxypropyl)-4-(isopropylamino)benzo[5,6][1,4]dioxino[2,3-b]pyridine-3-carboxamide]", "values": [{"measurement": "IC50", "setting": "IRAK4", "result": 220, "unit": "nM"}]}, {"smiles": "CC(C)Nc1c(C(=O)NCc2nnc[nH]2)cnc2c1Oc1cc(C#N)ccc1O2", "note": "[Example 12, N-((4H-1,2,4-triazol-3-yl)methyl)-7-cyano-4-(isopropylamino)benzo[5,6][1,4]dioxino [2,3-b]pyridine-3-carboxamide]", "values": [{"measurement": "IC50", "setting": "IRAK4", "result": 140, "unit": "nM"}]}, {"smiles": "CCOCCNC(=O)c1cnc2c(c1NC(C)C)Oc1cc(C#N)ccc1O2", "note": "[Example 4, 7-cyano-N-(2-ethoxyethyl)-4-(isopropylamino)benzo[5,6][1,4]dioxino[2,3-b]pyridine-3-carboxamide]", "values": [{"measurement": "IC50", "setting": "IRAK4", "result": 82, "unit": "nM"}]}, {"smiles": "CC(C)Nc1c(C(=O)NC2CCOCC2)cnc2c1Oc1cc(C#N)ccc1O2", "note": "[Example 3, 7-cyano-4-(isopropylamino)-N-(tetrahydro-2H-pyran-4-yl)benzo[5,6][1,4]dioxino [2,3-b]pyridine-3-carboxamide]", "values": [{"measurement": "IC50", "setting": "IRAK4", "result": 60, "unit": "nM"}]}, {"smiles": "COCCNC(=O)c1cnc2c(c1NC(C)C)Oc1cc(C#N)ccc1O2", "note": "[Example 5, 7-cyano-4-(isopropylamino)-N-(2-methoxyethyl)benzo[5,6][1,4]dioxino[2,3-b]pyridine-3-carboxamide]", "values": [{"measurement": "IC50", "setting": "IRAK4", "result": 150, "unit": "nM"}]}, {"smiles": "CC(C)Nc1c(C(=O)NC2CCCOC2)cnc2c1Oc1cc(C#N)ccc1O2", "note": "(centres unmarked) [Example 9, 7-cyano-4-(isopropylamino)-N-(tetrahydro-2H-pyran-3-yl)benzo[5,6][1,4]dioxino [2,3-b]pyridine-3-carboxamide]", "values": [{"measurement": "IC50", "setting": "IRAK4", "result": 92, "unit": "nM"}]}, {"smiles": "CC(C)Nc1c(C(=O)NCC2(CO)COC2)cnc2c1Oc1cc(C#N)ccc1O2", "note": "[Example 18, 7-cyano-N-((3-(hydroxymethyl)oxetan-3-yl)methyl)-4-(isopropylamino)benzo [5,6][1,4]dioxino[2,3-b]pyridine-3-carboxamide]", "values": [{"measurement": "IC50", "setting": "IRAK4", "result": 240, "unit": "nM"}]}, {"smiles": "CC(C)Nc1c(C(=O)NCC(C)(C)CO)cnc2c1Oc1cc(C#N)ccc1O2", "note": "[Example 7, 7-cyano-N-(3-hydroxy-2,2-dimethylpropyl)-4-(isopropylamino)benzo[5,6][1,4]dioxino[2,3-b]pyridine-3-carboxamide]", "values": [{"measurement": "IC50", "setting": "IRAK4", "result": 270, "unit": "nM"}]}]}
